Assay results published in patent US20230086007A1, “USE OF DENATONIUM BENZOATE AS A SEED TREATMENT FOR CROPS AS BIRD AND/OR INSECT REPELLENT” (KWS SAAT SE & Co. KGaA, priority 2020, published 2023).
Entries after “also recorded” stand apart in the source; their conditions may differ.

Legend:
corvid = test: Additional bird repellent field trials at three locations in Germany, plant stand counts; assay type: in vivo, Corvus; conditions: corn seed, denatonium benzoate 1 g/50.000 seeds
Description: The bird repellent effect of denatonium benzoate has further been evaluated in additional field trials at three different location in Germany. Denatonium benzoate alone (DNB) or denatonium benzoate in combination with a solution of micronutrients (DNB+HA450) mixed with a sticker have been applied to the seeds. Denatonium benzoate has been applied in a concentration of 1 g/50.000 seeds. Three chemical references have been included in the trials: Korit (active substance: Ziram), Curb Crop Garden Powder with Sphere's formulation (active substance: aluminium ammonium sulphate) and Schwefal (active substance: organic sulfur). As negative control untreated seed has been used.
Plant stand counts have been assessed and summarized. […] Results of earlier field trials have been confirmed.

maize plants = test: Wireworm field trial in Italy: phytotoxicity (PHYGEN) and vigor (VIGOR); conditions: for PHYGEN phytotoxicity, stage E: at emergence; for VIGOR, stage E / VIGOR, stage V3 / VIGOR, stage V5: ratings from 1-10 (10 is best)
Description: Evaluation took place at emergence (E), at V3 stage (=3 leaves unfolded) and at V5 stage (=5 leaves unfolded). The following characteristics have been phenotyped: phytotoxicity (PHYGEN) at stage E, V3 and V5 in % per plot, vigor (VIGOR) at stage E, V3 and V5 in ratings from 1-10 (10 is best), insect damage (DAMINS) at stage V5 in plants per row (left DAMINS column in Table 7) and in % per row (right DAMINS column in Table 7).

Question: What does the source list for CC[N+](CC)(CC(=O)Nc1c(C)cccc1C)Cc1ccccc1.O=C([O-])c1ccccc1 [Bitrex, N-Benzyl-2-(2,6-dimethylanilino)-N, N-diethyl-2-oxoethan-1-aminium benzoate]?
Answer: efficiency as corvid repellent for corn (corvid): excellent effect; also recorded: comparable with the best bird repellents like Korit and Sphere; PHYGEN phytotoxicity, stage V3 (maize plants; 5 g Bitrex per 50,000 seeds): 0 % per plot; PHYGEN phytotoxicity, stage V5 (maize plants; 5 g Bitrex per 50,000 seeds): 0 % per plot; PHYGEN phytotoxicity, stage E (maize plants; 5 g Bitrex per 50,000 seeds): 0 % per plot; VIGOR, stage E (maize plants; 5 g Bitrex per 50,000 seeds): 10; VIGOR, stage V3 (maize plants; 5 g Bitrex per 50,000 seeds): 10; VIGOR, stage V5 (maize plants; 5 g Bitrex per 50,000 seeds): 10; PHYGEN phytotoxicity, stage V3 (maize plants; 10 g Bitrex per 50,000 seeds): 0 % per plot; PHYGEN phytotoxicity, stage V5 (maize plants; 10 g Bitrex per 50,000 seeds): 0 % per plot; PHYGEN phytotoxicity, stage E (maize plants; 10 g Bitrex per 50,000 seeds): 0 % per plot; VIGOR, stage E (maize plants; 10 g Bitrex per 50,000 seeds): 10; VIGOR, stage V3 (maize plants; 10 g Bitrex per 50,000 seeds): 10; VIGOR, stage V5 (maize plants; 10 g Bitrex per 50,000 seeds): 10; PHYGEN phytotoxicity, stage V3 (maize plants; 20 g Bitrex per 50,000 seeds): 0 % per plot; PHYGEN phytotoxicity, stage V5 (maize plants; 20 g Bitrex per 50,000 seeds): 0 % per plot; PHYGEN phytotoxicity, stage E (maize plants; 20 g Bitrex per 50,000 seeds): 0 % per plot; VIGOR, stage E (maize plants; 20 g Bitrex per 50,000 seeds): 10; VIGOR, stage V3 (maize plants; 20 g Bitrex per 50,000 seeds): 10; VIGOR, stage V5 (maize plants; 20 g Bitrex per 50,000 seeds): 10; negative effect on plant vitality with respect to phytotoxicity and plant vigor (maize plants; Bitrex applied at high concentration (5-20 g per 50,000 seeds), field trial): has not been observed
